Values after ≈ are worked out from the molar mass of the structure shown. Like-named read-outs stand apart in the source and are kept apart here. Marks after values point to notes of the source that are not given here. Values belong to the compound of their own block, whether it stands above or below them.
What was measured:
[1] = cited from earlier work
[2] = Merck Index, cited from earlier work
[3] = Storage stability of amifostine solutions by stability indicating HPLC method (% remaining); format: physicochemical
Method: As will be seen below in Example 1, a 250 mg/ml liquid concentrate was prepared at pH 9, and 200 mg/ml liquid concentrates were prepared at pH 10.5, 11.5, 12.5 and 13. The stability was monitored at 40° C., 25° C. and 5° C. by a stability indicating HPLC method using the following HPLC conditions:
Solutions of amifostine at 200 mg/ml or 250 mg/ml were prepared at the pHs shown in the table below and stored at the temperatures indicated for the times indicated. “% remaining” in the table below is determined by the HPLC method described earlier in the specification.

physchem = format: physicochemical; details: for crystallization of solution: 200 mg/ml solution
Method: Amifostine is a phospho ester compound that is used pharmacologically for the amelioration of side effects of radiation and chemotherapy. The compound is currently marketed as a lyophilizate of a crystalline trihydrate of amifostine, typically in vials of 500 mg, which is reconstituted to a final administration concentration of 5 to 40 mg/ml for IV infusion. […] Amifostine is known to undergo hydrolysis in aqueous solution at acidic, neutral, and mild basic conditions. Thus, it was believed that stable aqueous formulations that would not hydrolyze to any appreciable extent over typical storage time periods were not likely to be found. […] Thus, aqueous liquid concentrates of amifostine were simply thought not possible. Because such an aqueous liquid amifostine concentrate would eliminate a potential source of dosing errors in clinical practice, there is clearly a need for the same.
(§1) At pH 9.0, 50% of the amifostine is present as the double zwitterion and 50% of amine 1 (primary amine) is present as the free base form making 50% of the amifostine have a net negative charge. At pH 10.0, only 10% of amifostine is present as a double zwitterion and the other 90% has a net negative charge; amine 1 is mainly in the free base form. […] Approximately 1% is present as the double zwitterion. More importantly, 17% of amifostine has both amines in the un-ionized form as free bases and this particular ionic species of the molecule carries about −2 charge. At this pH (11), it is observed that there is a significant improvement in the stability. […] At pH 13, over 95% of the amifostine is present with both amines in their free base forms with improved stability.

[4] = Approximate concentration of ionic species as function of pH according to the pKa values; format: physicochemical
Source text: There are four pKas for amifostine. The Merck Index lists them to be <2.0, 4.2, 9.0 and 11.7. The amino groups (2) and the phosphate group (2 pKa per group) can all be completely protonated. [Ref: Structure of Radio protective agent S-2(3-Aminoprpropylamino)ethylphosphorthioic acid (WR 2721) Jean Karle, Acta Cryst (1988) C44 135-138]. The usual form crystallized from solution is a double zwitterion with the phosphate completely dissociated (−2) and the amino groups fully protonated (+2). It is usually drawn with the amines in their free base form and the phosphate completely protonated but that is not how it exists in solution. So, the two pKa values from the double zwitterion are for the two amino functions ionizing (i.e., pKas 3 & 4). The first two pKas are for the phosphate which are perturbed by the two positive charges on the amino groups which pushes them lower than pKa1 and pKa2 for phosphoric acid. The following table describes the ionic nature of the compound as function of pH according to the pKa values reported in the Merck Index. The table also summarizes the approximate concentration of ionic species as function of pH:
as §1

[5] = Hydrolysis of amifostine to free thiol metabolite as function of pH (stability evaluations); format: physicochemical
Source text: At pH 7.4, the intrinsic pH, amifostine has a net neutral charge as a double zwitterion with the phosphate completely dissociated (−2) and the amino groups fully protonated (+2). During stability evaluations carried out for the purposes of the present invention it was observed that the hydrolysis of amifostine to release free thiol metabolite is rapid at acidic pH and even at weakly acidic pH. On the other hand, the hydrolysis was almost 100-fold slower at pH 10 and above.

Structure (SMILES): NCCCNCCSP(=O)(O)O [amifostine trihydrate]
crystallization of solution ([1]; about 200 mg/ml solution in water stored at refrigerated conditions): substantial crystallization results
aqueous solubility in water ([1]; ambient conditions): about 200 mg/ml

potency loss ([3]; 5° C., 180-day storage, pH 12.5 and 13 formulations): ≤ 3%
% remaining ([3]; pH 7.4, 200 mg/ml, 25° C., 7 days): 89%
% remaining ([3]; pH 7.4, 200 mg/ml, 25° C., 14 days): 78%
% remaining ([3]; pH 7.4, 200 mg/ml, 25° C., 25 days): 60%
% remaining ([3]; pH 7.4, 200 mg/ml, 25° C., 33 days): 52%
% remaining ([3]; pH 7.4, 200 mg/ml, 40° C., 2 days): 71%
% remaining ([3]; pH 7.4, 250 mg/ml, 40° C., 1 day): 84%
% remaining ([3]; pH 7.4, 250 mg/ml, 40° C., 2 days): 66%
% remaining ([3]; pH 7.4, 250 mg/ml, 40° C., 3 days): 57%
% remaining ([3]; pH 9.0, 250 mg/ml, 5° C., 90 days): 96%
% remaining ([3]; pH 9.0, 250 mg/ml, 5° C., 180 days): 91* %
% remaining ([3]; pH 9.0, 250 mg/ml, 25° C., 10 days): 83%
% remaining ([3]; pH 9.0, 250 mg/ml, 25° C., 25 days): 60%
% remaining ([3]; pH 9.0, 250 mg/ml, 40° C., 1 day): 83%
% remaining ([3]; pH 10.5, 200 mg/ml, 5° C., 90 days): 94%
% remaining ([3]; pH 10.5, 200 mg/ml, 5° C., 180 days): 90%
% remaining ([3]; pH 10.5, 200 mg/ml, 25° C., 10 days): 85%
% remaining ([3]; pH 10.5, 200 mg/ml, 25° C., 25 days): 62%
% remaining ([3]; pH 10.5, 200 mg/ml, 25° C., 35 days): 57%
% remaining ([3]; pH 10.5, 200 mg/ml, 25° C., 60 days): 39%
% remaining ([3]; pH 10.5, 200 mg/ml, 40° C., 1 day): 84%
% remaining ([3]; pH 10.5, 200 mg/ml, 40° C., 2 days): 75%
% remaining ([3]; pH 11.5, 200 mg/ml, 5° C., 90 days): 93%
% remaining ([3]; pH 11.5, 200 mg/ml, 5° C., 180 days): 92%
% remaining ([3]; pH 11.5, 200 mg/ml, 25° C., 10 days): 86%
% remaining ([3]; pH 11.5, 200 mg/ml, 25° C., 25 days): 64%
% remaining ([3]; pH 11.5, 200 mg/ml, 25° C., 60 days): 51%
% remaining ([3]; pH 11.5, 200 mg/ml, 40° C., 1 day): 90%
% remaining ([3]; pH 12.5, 200 mg/ml, 5° C., 90 days): 99%
% remaining ([3]; pH 12.5, 200 mg/ml, 5° C., 180 days): 97%
% remaining ([3]; pH 12.5, 200 mg/ml, 25° C., 10 days): 94%
% remaining ([3]; pH 12.5, 200 mg/ml, 25° C., 32 days): 86%
% remaining ([3]; pH 12.5, 200 mg/ml, 25° C., 60 days): 74%
% remaining ([3]; pH 12.5, 200 mg/ml, 40° C., 4 days): 77%
% remaining ([3]; pH 13.0, Batch #1, 200 mg/ml, 5° C., 90 days): 99%
% remaining ([3]; pH 13.0, Batch #1, 200 mg/ml, 5° C., 180 days): 98%
% remaining ([3]; pH 13.0, Batch #1, 200 mg/ml, 5° C., 270 days): 95%
% remaining ([3]; pH 13.0, Batch #1, 200 mg/ml, 25° C., 18 days): 96%
% remaining ([3]; pH 13.0, Batch #1, 200 mg/ml, 25° C., 36 days): 82%
% remaining ([3]; pH 13.0, Batch #1, 200 mg/ml, 25° C., 60 days): 74%
% remaining ([3]; pH 13.0, Batch #1, 200 mg/ml, 40° C., 4 days): 85-86%
% remaining ([3]; pH 13.0, Batch#2, 200 mg/ml, 5° C., 90 days): 100%
% remaining ([3]; pH 13.0, Batch#2, 200 mg/ml, 5° C., 180 days): 97%
% remaining ([3]; pH 13.0, Batch#2, 200 mg/ml, 5° C., 270 days): 95%
% remaining ([3]; pH 13.0, Batch#2, 200 mg/ml, 25° C., 18 days): 96%
% remaining ([3]; pH 13.0, Batch#2, 200 mg/ml, 25° C., 36 days): 82%
% remaining ([3]; pH 13.0, Batch#2, 200 mg/ml, 25° C., 90 days): 75%
% remaining ([3]; pH 13.0, batch #3, 200 mg/ml, 5° C., 90 days): 101%
% remaining ([3]; pH 13.0, batch #3, 200 mg/ml, 5° C., 180 days): 97%
% remaining ([3]; pH 13.0, batch #3, 200 mg/ml, 5° C., 270 days): 95%
% remaining ([3]; pH 13.0, batch #3, 200 mg/ml, 25° C., 18 days): 97%
% remaining ([3]; pH 13.0, batch #3, 200 mg/ml, 25° C., 36 days): 82%
% remaining ([3]; pH 13.0, batch #3, 200 mg/ml, 25° C., 90 days): 76%
crystallization of solution (physchem; below pH 10, refrigeration conditions): crystallizes out
solubility (physchem; 5 °C, pH 10, water): ~100 mg/mL (≈ 467 mM)
Prim. amine (pKa 9.0) Protonated ([4]; pH 7): ~100%
Prim. amine (pKa 9.0) Unprotonated ([4]; pH 7): ~0%
Sec. amine (pKa 11.7) Protonated ([4]; pH 7): ~100%
Sec. amine (pKa 11.7) Unprotonated ([4]; pH 7): ~0%
Prim. amine (pKa 9.0) Protonated ([4]; pH 9): ~50%
Prim. amine (pKa 9.0) Unprotonated ([4]; pH 9): ~50%
Sec. amine (pKa 11.7) Protonated ([4]; pH 9): ~100%
Sec. amine (pKa 11.7) Unprotonated ([4]; pH 9): ~0%
amine 1 present as free base form, net negative charge ([4]; pH 9.0): 50%
present as the double zwitterion ([4]; pH 9.0): 50%
Prim. amine (pKa 9.0) Protonated ([4]; pH 10): ~10%
Prim. amine (pKa 9.0) Unprotonated ([4]; pH 10): ~90%
Sec. amine (pKa 11.7) Protonated ([4]; pH 10): ~100%
Sec. amine (pKa 11.7) Unprotonated ([4]; pH 10): ~0%
has a net negative charge (amine 1 free base) ([4]; pH 10.0): 90%
present as a double zwitterion ([4]; pH 10.0): 10%
Prim. amine (pKa 9.0) Protonated ([4]; pH 11): ~1%
Prim. amine (pKa 9.0) Unprotonated ([4]; pH 11): ~99%
Sec. amine (pKa 11.7) Protonated ([4]; pH 11): ~83%
Sec. amine (pKa 11.7) Unprotonated ([4]; pH 11): ~17%
both amines in the un-ionized form as free bases (about -2 charge) ([4]; pH 11.5 solution): 17%
present as the double zwitterion ([4]; pH 11.5 solution): Approximately 1%
Prim. amine (pKa 9.0) Protonated ([4]; pH 12): ~0.1%
Prim. amine (pKa 9.0) Unprotonated ([4]; pH 12): >99.9%
Sec. amine (pKa 11.7) Protonated ([4]; pH 12): ~33%
Sec. amine (pKa 11.7) Unprotonated ([4]; pH 12): ~67%
Prim. amine (pKa 9.0) Protonated ([4]; pH 13): ~0.01%
Prim. amine (pKa 9.0) Unprotonated ([4]; pH 13): 99.99%^
Sec. amine (pKa 11.7) Protonated ([4]; pH 13): <5%
Sec. amine (pKa 11.7) Unprotonated ([4]; pH 13): >95%
present with both amines in their free base forms ([4]; pH 13): over 95%
hydrolysis to release free thiol metabolite ([5]; acidic pH and even weakly acidic pH): rapid
hydrolysis slower than at acidic / weakly acidic pH ([5]; pH 10 and above): ~100 fold
Structure (SMILES): NCCCNCCSP(=O)(O)O [amifostine, S-2(3-Aminoprpropylamino)ethylphosphorthioic acid]
pKa ([2]; first pKa (phosphate)): < 2.0
pKa ([2]; fourth pKa (sec. amine, amine 2)): 11.7
pKa ([2]; second pKa (phosphate)): 4.2
pKa ([2]; third pKa (prim. amine, amine 1)): 9.0
crystallization of solution (physchem; pH 10.0, refrigeration conditions): remained clear with no crystallization observed

— patent US8815833B2, “Stable amifostine liquid concentrate” (Seidose, LLC, priority 2006, dated 2014)
